Data reported in PMC3471820, “The CoxD Protein, a Novel AAA+ ATPase Involved in Metal Cluster Assembly: Hydrolysis of Nucleotide-Triphosphates and Oligomerization” (PLoS ONE, 2012).

Legend:
CoxD [1] = target: T1, CoxD (Afipia carboxidovorans, UniProt Q51326); experiment: inhibition of ATP hydrolysis, ADP release; type: biochemical; details: 100 mM Tris/acetate pH 8.0, 1 mM Mg-acetate, 25 °C; refolded enzyme; 1 mM ATP; competes with ATP; slowly hydrolysable analogue
T1 construct: mainly hexamer, also dimer and tetramer (homo-oligomer)
T1 sequence (Q51326 1-295): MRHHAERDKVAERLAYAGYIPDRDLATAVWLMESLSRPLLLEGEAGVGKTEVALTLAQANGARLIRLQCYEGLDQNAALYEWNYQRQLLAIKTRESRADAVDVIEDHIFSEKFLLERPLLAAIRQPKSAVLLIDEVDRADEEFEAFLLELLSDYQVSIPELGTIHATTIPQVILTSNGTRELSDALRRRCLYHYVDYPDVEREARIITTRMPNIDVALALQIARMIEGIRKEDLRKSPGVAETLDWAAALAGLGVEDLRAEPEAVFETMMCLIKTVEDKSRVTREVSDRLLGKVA

CoxD [2] = target: T1, CoxD; experiment: GTP hydrolysis, inorganic phosphate release; type: biochemical; details: 100 mM Tris/acetate pH 8.0, 1 mM Na2GTP, 1 mM Mg-acetate, 25 °C; weak side activity
purified protein = substrate: Nc1ncnc2c1ncn2[C@@H]1O[C@H](COP(=O)(O)OP(=O)(O)OP(=O)(O)O)[C@@H](O)[C@H]1O; experiment: purified protein; details: 100 mM Tris/acetate pH 8.0, 1 mM Mg-acetate, 25 °C, refolded enzyme

Nc1ncnc2c1ncn2[C@@H]1O[C@H](COP(=O)(O)OP(=O)(O)OP(O)(O)=S)[C@@H](O)[C@H]1O [ATP-γ-S]
inhibition of ATP hydrolysis (qualitative) (CoxD [1]): It very effectively competed with ATP for CoxD

Nc1nc2c(ncn2[C@@H]2O[C@H](COP(=O)(O)OP(=O)(O)OP(=O)(O)O)[C@@H](O)[C@H]2O)c(=O)[nH]1 [GTP]
GTP hydrolysis, inorganic phosphate release (CoxD [2]): formed from GTP

B1: CoxD (Afipia carboxidovorans OM5) (protein)
chain: T1 sequence (Q51326 1-295)
Km (purified protein): 690 ± 140 µM
